# From PubChem BioAssay AID588709 (The Scripps Research Institute Molecular Screening Center, 2011)
# Where “and” joins values, the source holds several entries; their conditions need not be identical. Equal entries are not always repeated. Calls of active or inactive are those of the source. No rule for the calls is given here.
# System: HEK293 cytotoxicity, ATP luminescence
# Experiment: cytotoxicity in HEK cells, dose response, counter-screen for IDE inhibitor project, cell-based, luminescence (AID 588709)
row,Compound,IC50
1,Cc1ccc(NC(=O)CSc2nnc(-c3cccc(Cl)c3)n2Cc2ccco2)c(C)c1,35.6 µM (inactive)
2,O=C(CSc1nnc(-c2cccc(Cl)c2)n1Cc1ccco1)Nc1ccccc1C(F)(F)F,30.9 µM (inactive)
3,Cc1nc(-c2cccnc2)sc1C(=O)Nc1cccc(C(F)(F)F)c1,15.8 µM (inactive)
4,Clc1cccc(-c2nnc(SCc3nc4ccccc4[nH]3)n2Cc2ccco2)c1,23.3 µM (inactive)
5,Cc1c(CCC(=O)NCCCn2ccnc2)c(=O)oc2cc3oc4c(c3cc12)CCCC4,21.4 µM (inactive)
6,Cc1cccc(-c2nnc(SCc3nc4ccccc4[nH]3)n2Cc2ccco2)c1,34.8 µM (inactive) and 32.7 µM (inactive)
7,Cc1ccc(-c2nc(C(=O)Nc3cccc(C(F)(F)F)c3)cs2)cc1,36.1 µM (inactive)
8,Cc1ccc(C)c(N2C(=N)S/C(=C\c3ccc(-c4ccccc4C(=O)O)o3)C2=O)c1,> 71.5 µM (inactive)
9,Clc1cccc(-c2nnc(SCc3nc4ccccc4[nH]3)n2-c2ccccc2)c1,31.2 µM (inactive)
10,COc1ccc(-c2nc(C(=O)Nc3cccc(C(F)(F)F)c3)cs2)cc1,67.8 µM (inactive)
11,CC(Sc1nnc(-c2cccnc2)n1-c1ccccc1F)C(=O)N1CCCc2ccccc21 (stereo unspecified),32.1 µM (inactive)
12,O=C(Nc1cccc(C(F)(F)F)c1)c1csc(-c2ccncc2)n1,24.1 µM (inactive)
13,O=C(Nc1ccc2oc(-c3cccnc3)nc2c1)c1ccc2c(c1)OCCO2,> 71.5 µM (inactive)
14,COc1cccc(-c2nnc(SCc3nc4ccccc4[nH]3)n2Cc2ccco2)c1,36.5 µM (inactive)
15,O=C(CSc1nnc(-c2cccc(Cl)c2)n1Cc1ccco1)Nc1ccc2cn[nH]c2c1,> 71.5 µM (inactive)
16,O=C(Nc1cc(C(F)(F)F)cc(C(F)(F)F)c1)c1csc(-c2ccncc2)n1,> 71.5 µM (inactive)

row,Compound,IC50
1,O=C(Nc1cccc(C(F)(F)F)c1)c1csc(-c2cccc(C(F)(F)F)c2)n1,55.9 µM (inactive)
2,COc1cc(/C=C2\SC(=S)N(NC(C)=O)C2=O)ccc1OC(=O)c1ccco1,> 71.5 µM (inactive)
3,CCOc1ccc2[nH]c3c(N4CCN(C(=O)c5ccco5)CC4)ncnc3c2c1,21.1 µM (inactive)
4,Nc1c(C(=O)Nc2nccs2)sc2nc(-c3cccs3)cc(C(F)(F)F)c12,9.06 µM
5,O=C(Nc1cccc(C(F)(F)F)c1)c1csc(Cc2cccc(C(F)(F)F)c2)n1,29.5 µM (inactive)
6,O=C(CSc1nnc(-c2cccc(Cl)c2)n1Cc1ccco1)Nc1ccc2c(c1)OCCO2,29.7 µM (inactive)
7,O=C(C1CC1)N1CCN(c2ccnc3cc(Cl)ccc23)CC1,> 71.5 µM (inactive)
8,O=C(Nc1cccc(C(F)(F)F)c1)c1csc(-c2ccccc2)n1,33.3 µM (inactive)
9,CCN(CC)c1ccc(/C=C2\C(=N)N3N=C(CC(=O)N4CCOCC4)SC3=NC2=O)cc1,> 71.5 µM (inactive)
10,O=C(CSc1nnc(-c2cccc(Cl)c2)n1Cc1ccco1)c1ccc2ccccc2c1,30.7 µM (inactive)
11,Cn1c(SCc2nc3ccccc3[nH]2)nnc1-c1cccc(Cl)c1,> 71.5 µM (inactive)
12,O=c1c2ccccc2sn1-c1cc(S(=O)(=O)N2CCOCC2)ccc1N1CCOCC1,9.61 µM
13,COc1ccc(NC(=O)CSc2nnc(CN3CCOCC3)n2C)cc1Cl,> 71.5 µM (inactive)
14,Cn1c(=O)c(C(=O)CN2CCCc3ccccc32)c(N)n(Cc2ccccc2)c1=O,30.1 µM (inactive)
15,COc1ccc(C(=O)N2CCN(C(=O)C3COc4ccccc4O3)CC2)cc1OC (stereo unspecified),> 71.5 µM (inactive)
